pEC50, pKi: −log10 of the molar value.
Test: Antagonist activity at Adenosine receptor subtype 2B in human RBC assessed as change in erythrocyte morphology incubated for 3 hrs with occasional gentle stirring for every 30 min measured for every 12 hrs by microscopic analysis

Row | pKi | pEC50 | SMILES
1 | 8.74 |  | Cc1ccc(N2CCN(C(=O)[C@H](C)Oc3ccc(-c4cc5c([nH]4)c(=O)n(C)c(=O)n5C)cc3)CC2)cc1
2 | 8.89 |  | C[C@H](Oc1ccc(-c2cc3c([nH]2)c(=O)n(C)c(=O)n3C)cc1)C(=O)Nc1ccc(Br)cc1
3 |  | 7.33 | CC(OC(=O)c1nccnc1N)C(=O)NCc1ccc2c(c1)OCO2 (stereo not drawn)

The next lines start with the molecule.

Row | SMILES | pKi | pEC50
4 | Cc1cc(NC(=O)CNc2ccc3c(c2)OC(F)(F)O3)on1 |  | 7.46
5 | CC(C)c1noc(OCC(=O)NCc2ccc3c(c2)OCO3)n1 |  | 7.46
6 | CCCc1cc(O)nc(SC(C)C(=O)Nc2cc(C)no2)n1 (stereo not drawn) |  | 7.64
7 | O=C(CN1CCOC(Cn2cncn2)C1)Nc1cccnc1 (stereo not drawn) |  | 7.77
8 | CCCn1c(=O)n(C)c(=O)c2[nH]c(-c3ccc(O[C@@H](C)C(=O)N4CCN(c5nc6ccc(Cl)cc6s5)CC4)cc3)cc21 | 9.00 | 

Source: BindingDB's records for doi:10.1016/j.ejmech.2017.05.035 (Universidade Estadual De Feira De Santana, 2017)
